Experiments:
Type in all cases: cell-based
[1] = test system: ARPE19 retinal pigment epithelial cells; experiment: alamarBlue proliferation assay, ARPE19; settings: Homo sapiens, ARPE-19, 48 hours' incubation
Experimental: (§1) EBM-2 and IMDM growth media were purchased from Lonza (Walkersville, Md., USA). RPMI and DMEM media were purchased from Thermo Scientific (Waltham, Mass., USA). ARPE19 cells were obtained from ATCC (Manassas, Va., USA). HRECs and Attachment Factor were purchased from Cell Systems (Kirkland, Wash., USA) and were used between passages 5 and 8. Endothelial Growth Medium (EGM-2) was prepared by mixing the contents of an EGM-2 “Bullet Kit” (Cat. no. CC-4176) with Endothelial Basal Medium (EBM) (Lonza). The EGM-2 “Bullet Kit” contains hydrocortisone, human fibroblast growth factor (hFGF), VEGF, R3-insulin like growth factor (R3-IGF-1), ascorbic acid, human epidermal growth factor (hEGF), gentamycin and heparin along with 2% fetal bovine serum (FBS). ARPE19 cells were grown in DEM medium containing 10% FBS and 1% penicillin-streptomycin (pen-strep). 92-1 cells were grown in RPMI medium containing 10% FBS and 1% pen-strep. Y79 cells were grown in RB medium (IMDM+10% FBS+55 μM β-mercaptoethanol+10 μg/mL Insulin+1% pen-strep). […]
(§2) The proliferation of cells was monitored by an alamarBlue based fluorescence assay. […] At the end of the incubation, 11.1 μL of alamarBlue reagent was added and 4 hours after, fluorescence readings were taken with excitation and emission wavelengths of 560 nm and 590 nm respectively. Data were analyzed and dose response curves generated using GraphPad Prism software (v. 6.0).

[2] = test system: human retinal endothelial cells (HRECs); experiment: alamarBlue proliferation assay, HRECs; settings: HREC, 48 hours' incubation
Experimental: as §1, §2

[3] = test system: Y79 retinoblastoma cells; experiment: alamarBlue proliferation assay, Y79; settings: 48 hours' incubation
Experimental: as §1, §2

[4] = test system: 92-1 uveal melanoma cells; experiment: alamarBlue proliferation assay, 92-1; settings: 48 hours' incubation
Experimental: as §1, §2

`COc1ccc(CC2COc3cc(OC)c(OC)c(OC)c3C2)cc1O` (stereo not shown) [compound (1)] was tested. Which GI50 [1] did it give?
Its GI50 is over 100 µM.

What about the GI50 [2] of the same compound?
The GI50 was 0.00152 µM.

And the GI50 [3]?
The GI50 was 17 µM.

What about the GI50 [4] of the same compound?
Its GI50 is 28 µM.
